# Laboratory results published in US5605921A, “Triazole derivatives and salts thereof, and antifungal agent containing the same” (Toyama Chemical Co., Ltd., priority 1991, dated 1997).
# Assays:
# [1] = system: Aspergillus fumigatus IFO8868; assay: Therapeutic effect, oral, mice infected with Aspergillus fumigatus IFO8868 (4), Table 2d; type: in vivo; details: average survival days of Ketoconazole taken as 100; Aspergillus fumigatus 5.8×10^6 cells/mouse i.v.; 0.8 mg/mouse oral, 2 hours after infection and once daily for six consecutive days; 10 days observation; 10 mice
# Procedure: (4) The therapeutic effects of the present compounds, when they were administered orally, were examined using mice infected with Aspergillus fumigatus IFO8868.
# (§1) Aspergillus fumigatus IFO8868 was injected in a proportion of 5.8×10^6 cells/mouse to a group of 10 ICR strain male mice (weight: 19-21 g) intravenously at the tails, whereby the mice were infected with the fungi. […] The relative therapeutic index of the test compound was determined from the average survival days.
# The results are shown in Table 2d, in which the relative therapeutic index of each test compound is a value calculated by taking the average survival days of Ketoconazole as 100.
# [2] = system: Candida albicans ON28; assay: Therapeutic effect, oral, mice infected with Candida albicans ON28 (3), Table 2c; type: in vivo, ICR strain male mice infected with Candida albicans ON28; details: average survival days of Ketoconazole taken as 100; Candida albicans 5.7×10^6 cells/mouse i.v.; 0.1 mg/mouse oral, 2 hours after infection; 10 days observation; 10 mice
# Procedure: (3) The therapeutic effects of the present compounds, when they were administered orally, were examined using mice infected with Candida albicans ON28.
# as §1, with “Candida albicans ON28” for “Aspergillus fumigatus IFO8868”, “5.7×10^6” for “5.8×10^6”
# The results are shown in Table 2c, in which the relative therapeutic index of each test compound is a value calculated by taking the average survival days Ketoconazole as 100.
# [3] = system: Candida albicans ON28; assay: Minimum inhibitory concentration (MIC) against Candida albicans ON28; type: cell-based; details: ON28, 72 h, TC broth medium, 10^4 spores/ml, 37° C., 3 days
# Procedure: (§2) MIC was determined in accordance with the method of M. S. Marriott [25th Interscience Conference on Antimicrobial Agents and Chemotherapy, p. 243 (1985)].
# (§3) Candida albicans ON28 was cultured in a sabouraud dextrose agar medium containing 10 g of neopeptone, 20 g of glucose and 15 g of agar per liter, at 30° C. for 1-2 days. The yeast cells were suspended in sterile distilled water. Separately, Aspergillus fumigatus IFO8868 was cultured in a potato dextrose agar medium (manufactured by Nissui Pharmaceutical Co., Ltd.) at 30° C. until the conidia were formed abundantly. The formed conidia were suspended in a sterile physiological saline containing 0.1% of Tween 80. Each of the Candida albicans suspension and the Aspergillus fumigatus suspension was inoculated into a TC broth medium (containing 1.17 g of an yeast carbon base, 0.25 g of ammonium sulfate, 2.0 ml of a 50-fold concentrate of L-glutamic acid-containing MEM amino acid, 20 ml of a 0.5M phosphate buffer of pH 7.5 and 1.33 ml of 7.5% sodium hydrogencarbonate per 100 ml) containing a test compound, so that the final fungal amount became 10^4 spores/ml. Then, culture was conducted at 37° C. for 3 days. Thereafter, the growth of fungi was examined. The minimum concentration of test compound at which the growth of fungi had been inhibited, was taken as MIC (μg/ml).
# [4] = system: Candida albicans ON28; assay: Therapeutic effect, oral, mice infected with Candida albicans ON28 (1), Table 2a; type: in vivo, ICR strain male mice infected with Candida albicans ON28; details: average survival days of Ketoconazole taken as 100; Candida albicans 3.5×10^6 cells/mouse i.v.; 0.1 mg/mouse oral, 2 hours after infection; 10 days observation; 5 mice
# Procedure: (1) The therapeutic effects of the present compounds, when they were administered orally, were examined using mice infected with Candida albicans ON28.
# as §1, with “Candida albicans ON28” for “Aspergillus fumigatus IFO8868”, “3.5×10^6” for “5.8×10^6”, “5” for “10”
# The results are shown in Table 2a, in which the relative therapeutic index of each test compound is a value calculated by taking the average survival days Ketoconazole as 100.
# [5] = system: Aspergillus fumigatus IFO8868; assay: Minimum inhibitory concentration (MIC) against Aspergillus fumigatus IFO8868; type: cell-based; details: IFO8868, 72 h, TC broth medium, 10^4 spores/ml, 37° C., 3 days
# Procedure: as §2, §3
# [6] = system: Aspergillus fumigatus IFO8868; assay: Therapeutic effect, oral, mice infected with Aspergillus fumigatus IFO8868 (2), Table 2b; type: in vivo; details: average survival days of Ketoconazole taken as 100; Aspergillus fumigatus 3.6×10^6 cells/mouse i.v.; 0.8 mg/mouse oral, 2 hours after infection; 10 days observation; 5 mice
# Procedure: (2) The therapeutic effects of the present compounds, when they were administered orally, were examined using mice infected with Aspergillus fumigatus IFO8868.
# as §1, with “3.6×10^6” for “5.8×10^6”, “5” for “10”
# The results are shown in Table 2b, in which the relative therapeutic index of each test compound is a value calculated by taking the average survival days of Ketoconazole as 100.
# [7] = Acute toxicity in mice, intravenous; type: in vivo; details: intravenous at the tail, ICR strain male mice, group of 5; 50% solution in polyethylene glycol 300
# Procedure: Each of the compounds of Examples 10, 12, 19, 79, 142 and 146 was administered to a group of 5 ICR strain male mice (weight: 29-31 g) intravenously at the tails, and the acute toxicity of each compound was examined.
# Each compound was administered in the form of a 50% solution in polyethylene glycol 300.
SMILES,Relative therapeutic index [1],Relative therapeutic index [2],MIC [3],Relative therapeutic index [4],MIC [5],Relative therapeutic index [6],dose up to which no dead case occurred (acute toxicity) [7]
O=C(NC1CC1)C(F)(F)C(O)(Cn1cncn1)c1ccc(F)cc1Cl (centres unmarked) [Example 30],358,414,0.2 µg/mL,355,12.5 µg/mL,207,–
CCNC(=O)C(F)(F)C(O)(Cn1cncn1)c1ccc(F)cc1F (centres unmarked) [Example 12],237,445,0.2 µg/mL,440,25 µg/mL,150,≥ 100 mg/kg
O=C(NC1CC1)C(F)(F)C(O)(Cn1cncn1)c1ccc(F)cc1F (centres unmarked) [Example 19],253,405,0.1 µg/mL,625,50 µg/mL,164,≥ 100 mg/kg
